Where two headings read alike, the source gives them in different places. Where a SMILES comes first, the peptide text is derived from it. [ ]: non-standard residue; d: D form. Oic = O=C(O)[C@@H]1C[C@@H]2CCCC[C@@H]2N1; Tic = O=C(O)[C@@H]1Cc2ccccc2CN1; Orn = NCCC[C@H](N)C(=O)O; Dab = NCC[C@H](N)C(=O)O; Dap = NC[C@H](N)C(=O)O
How the values were obtained:
[1] = system: K. pneumoniae BAMC 07-18; type: cell-based, Klebsiella pneumoniae
Source text: Table 3 In vitro minimum inhibitory concentration (MIC) and minimum bactericide concentration (MBC) activity against K. pneumonia and P. aeruginosa. | column: K. pneumoniae BAMC 07-18 / MBC (μg/mL)/(μM)

[2] = system: P. aeruginosa PAO1; type: cell-based, Pseudomonas aeruginosa
Source text: Table 3 In vitro minimum inhibitory concentration (MIC) and minimum bactericide concentration (MBC) activity against K. pneumonia and P. aeruginosa. | column: P. aeruginosa PAO1 / MBC (µg/mL)/(μM)

[3] = system: LPS isolated from P. aeruginosa or K. pneumoniae; assay: Precipitation of AMP-LPS mixtures prepared for CD; type: physicochemical; settings: 350 μL stock LPS + 50 μL stock peptide, phosphate buffer; CD spectra could not be obtained
Method: Peptide solutions were prepared by dissolving approximately 2 mg of AMPs 70, 74, 75, 79, or 80 in 1.0 mL of phosphate buffer. […] For the LPS liposome studies 350 μL of stock LPS solution was mixed with 50 μL of stock peptide solution. CD spectroscopy is a sensitive technique, so it is commonly used to monitor conformational changes in peptides and proteins. […] All CD spectra were obtained by acquiring 8 scans using a 0.1 mm cylindrical quartz cell with a spectral range of 260 to 195 nm (at wavelengths below 195 nm the HTV exceeded 400, and therefore data collection was terminated at 195 nm) and a scanning rate of 20 nm/min. Acquisition parameters were bandwidth 1 nm, data pitch 0.2 nm, response time 2.0 s, and 5 mdeg sensitivity. Spectra were collected at room temperature (298 K). Contributions from LPS were eliminated by subtracting from the corresponding AMP-LPS solutions. All analyses of CD spectra were conducted after smoothing with a means-movement function.

[4] = system: K. pneumoniae BAMC 07-18
[5] = system: P. aeruginosa PAO1
[6] = K. pneumoniae BAMC 07-18, light face value
[7] = P. aeruginosa PAO1, light face value

Molecule `CC(C)C[C@H](NC(=O)[C@@H](N)CN)C(=O)N1Cc2ccccc2C[C@H]1C(=O)N1[C@H](C(=O)N[C@@H](CN)C(=O)N2Cc3ccccc3C[C@H]2C(=O)N2[C@H](C(=O)N[C@@H](Cc3ccccc3)C(=O)N3Cc4ccccc4C[C@H]3C(=O)N3[C@H](C(=O)N[C@@H](CN)C(=O)N4Cc5ccccc5C[C@H]4C(=O)N4[C@H](C(=O)N[C@@H](Cc5ccccc5)C(=O)N5Cc6ccccc6C[C@H]5C(=O)N5[C@H](C(=O)N[C@@H](CN)C(=O)N6Cc7ccccc7C[C@H]6C(=O)N6[C@H](C(=O)N[C@@H](CN)C(=O)N[C@@H](CN)C(=O)N[C@@H](CN)C(=O)N[C@@H](CN)C(N)=O)C[C@@H]7CCCC[C@@H]76)C[C@@H]6CCCC[C@@H]65)C[C@@H]5CCCC[C@@H]54)C[C@@H]4CCCC[C@@H]43)C[C@@H]3CCCC[C@@H]32)C[C@@H]2CCCC[C@@H]21` [AMP 72] (H-[Dap]L[Tic][Oic][Dap][Tic][Oic]F[Tic][Oic][Dap][Tic][Oic]F[Tic][Oic][Dap][Tic][Oic][Dap][Dap][Dap][Dap]-NH2) has an MBC ([1]; BAMC 07-18) of 33.6 µM, an MBC [1, 6] of 100 µg/mL and an MBC [2, 7] of 100 µg/mL. For the same molecule, the MBC ([2]; PAO1) was 33.6 µM, the “precipitation in the presence of either LPS” value (shortened to “precipitation in the presence”) [3] was “precipitation of uncharacterized AMP-LPS complexes” and the MIC ([4]; BAMC 07-18) was 33.6 µM. The MIC [4, 6] was 100 µg/mL, the MIC [5, 7] was 50 µg/mL and the MIC ([5]; PAO1) was 16.8 µM.

In the case of `CC(C)C[C@H](NC(=O)[C@@H](N)CCCN)C(=O)N1Cc2ccccc2C[C@H]1C(=O)N1[C@H](C(=O)N[C@@H](CCCN)C(=O)N2Cc3ccccc3C[C@H]2C(=O)N2[C@H](C(=O)N[C@@H](Cc3ccccc3)C(=O)N3Cc4ccccc4C[C@H]3C(=O)N3[C@H](C(=O)N[C@@H](CCCN)C(=O)N4Cc5ccccc5C[C@H]4C(=O)N4[C@H](C(=O)N[C@@H](Cc5ccccc5)C(=O)N5Cc6ccccc6C[C@H]5C(=O)N5[C@H](C(=O)N[C@@H](CCCN)C(=O)N6Cc7ccccc7C[C@H]6C(=O)N6[C@H](C(=O)N[C@@H](CCCN)C(=O)N[C@@H](CCCN)C(=O)N[C@@H](CCCN)C(=O)N[C@@H](CCCN)C(N)=O)C[C@@H]7CCCC[C@@H]76)C[C@@H]6CCCC[C@@H]65)C[C@@H]5CCCC[C@@H]54)C[C@@H]4CCCC[C@@H]43)C[C@@H]3CCCC[C@@H]32)C[C@@H]2CCCC[C@@H]21` [AMP 71] (H-[Orn]L[Tic][Oic][Orn][Tic][Oic]F[Tic][Oic][Orn][Tic][Oic]F[Tic][Oic][Orn][Tic][Oic][Orn][Orn][Orn][Orn]-NH2), the “precipitation in the presence” value [3] is reported as “precipitation of uncharacterized AMP-LPS complexes”, the MIC ([4]; BAMC 07-18) is reported as 31.2 µM and the MIC [4, 6] is reported as 100 µg/mL. For the same molecule, the MIC [5, 7] was 100 µg/mL and the MIC ([5]; PAO1) was 31.2 µM.

Work on `CC(C)C[C@H](NC(=O)[C@@H](N)CCN)C(=O)N1Cc2ccccc2C[C@H]1C(=O)N1[C@H](C(=O)N[C@@H](CCN)C(=O)N2Cc3ccccc3C[C@H]2C(=O)N2[C@H](C(=O)N[C@@H](Cc3ccccc3)C(=O)N3Cc4ccccc4C[C@H]3C(=O)N3[C@H](C(=O)N[C@@H](CCN)C(=O)N4Cc5ccccc5C[C@H]4C(=O)N4[C@H](C(=O)N[C@@H](Cc5ccccc5)C(=O)N5Cc6ccccc6C[C@H]5C(=O)N5[C@H](C(=O)N[C@@H](CCN)C(=O)N6Cc7ccccc7C[C@H]6C(=O)N6[C@H](C(=O)N[C@@H](CCN)C(=O)N[C@@H](CCN)C(=O)N[C@@H](CCN)C(=O)N[C@@H](CCN)C(N)=O)C[C@@H]7CCCC[C@@H]76)C[C@@H]6CCCC[C@@H]65)C[C@@H]5CCCC[C@@H]54)C[C@@H]4CCCC[C@@H]43)C[C@@H]3CCCC[C@@H]32)C[C@@H]2CCCC[C@@H]21` [AMP 73] (H-[Dab]L[Tic][Oic][Dab][Tic][Oic]F[Tic][Oic][Dab][Tic][Oic]F[Tic][Oic][Dab][Tic][Oic][Dab][Dab][Dab][Dab]-NH2) yielded an MBC ([1]; BAMC 07-18) of 32.4 µM, an MBC [1, 6] of 100 µg/mL and an MBC [2, 7] of 100 µg/mL. For the same molecule, the MBC ([2]; PAO1) was 32.4 µM, the “precipitation in the presence” value [3] was “precipitation of uncharacterized AMP-LPS complexes” and the MIC ([4]; BAMC 07-18) was 16.2 µM. The MIC [4, 6] was 50 µg/mL, the MIC [5, 7] was 50 µg/mL and the MIC ([5]; PAO1) was 16.2 µM.

— paper PMC4295349, “Synthetic Antimicrobial Peptides Exhibit Two Different Binding Mechanisms to the Lipopolysaccharides Isolated from Pseudomonas aeruginosa and Klebsiella pneumoniae” (International Journal of Medicinal Chemistry, 2014)
